Literature values as cited in patent US20240382574A1, “METHODS AND COMPOSITIONS FOR ORALLY DOSING ANIMALS” (Animal Science Products, Inc., priority 2023, published 2024).

Tested on: piglets
Conditions: previous research

Compound | attraction of piglets
3-methylindole (skatole) | piglets are attracted to these molecules
CCCCCCCCCCCCCC(=O)O [myristic acid, tetradecanoic acid (myristic acid)] | piglets are attracted to these molecules
